Patent US20260132172A1, “IN VITRO BIOSYNTHESIS OF DIVERSE PYRIDINE-BASED MACROCYCLIC PEPTIDES” (The Brd. of Trustees of the Univ. of Illinois, priority 2022, published 2026)
Where a SMILES comes first, the peptide text is derived from it. The star is where a group is joined. 5FAM = O=C1OC2(c3ccc(O)cc3Oc3cc(O)ccc32)c2ccc(C(=O)*)cc21

Key:
[1] = biological target: MBP-MroD; experiment: Fluorescence polarization to measure KD with MroD; format: binding, Micromonospora rosaria
Procedure: (§1) All proteins and peptides were prepared in the 0.5× storage buffer before concentration/FP measurement. Experiments were done in triplicates. Stock fluorescein-labeled peptide was measured concentration using A490 (ε: 70,000 M^−1 cm^−1). Initial sample was prepared: 5 nM labelled Δ12MroA1 (for MroD; for MroB, only 2 nM labelled Δ12MroA1 was used), 10 μM MBP-MroB (A280 ε: 178,885 M^−1 cm^−1) or 10 μM MBP-MroD (A280 ε:115,740 M^−1 cm^−1). In a black 96-well plate (Corning 3686), 50 μL of initial sample was added to the first well, followed by 11 3-fold dilutions into subsequent wells containing 5 nM labeled Δ12MroA1. The plate was covered from light and incubated at room temperature for 1 h, and then fluorescence polarization was measured (Biotek Synergy H4 hybrid reader) using the following filter (Excitation: Emission—485 nm/20 nm: 518 nm/20 nm). The obtained data was converted to anisotropy value and plotted against protein concentration. Using the OriginPro software, the data were fitted to receptor depletion equation:^11
(§2) Where: y=anisotropy value, A1=minimum anisotropy, A2=maximum anisotropy, Lt=probe concentration, and x=total enzyme concentration.

[2] = biological target: MBP-MroB; experiment: Fluorescence polarization to measure KD with MroB; format: binding, Micromonospora rosaria
Procedure: as §1, §2

[3] = system: MroBCD; experiment: MroBCD treatment of precursor peptides, overall pyritide biosynthesis; format: biochemical, Micromonospora rosaria; details: result in words
Procedure: (§3) In a 0.65 mL protein low-binding Eppendorf tube placed on ice. 0.75 μL of purified mroA variant template DNA was mixed with 0.75 μL of Solution B and 1 μL of Solution A of PURExpress In vitro Protein Synthesis Kit (E6800L) purchased from NEB (total volume of reaction is 2.5 μL). The translation reactions were performed at 37° C. for 1 h on an aluminum block.
For a full MroBCD substrate scope investigation, a total translation volume for each variant of 7.5 μL was performed. 1.5 μL of 90 mM iodoacetamide (IAA) was added to quench dithiothreitol (DTT) in the translation reaction mixture, a thiol-based nucleophile that can react with electrophilic dehydroalanines generated from MroBC-catalyzed dehydration assays. The translation product was split into two parts with these corresponding volumes: 3 μL and 6 μL. In the 6 μL part. 10.2 μL of the enzyme mix containing enzymes and cofactors was added along with 1.8 μL 90 mM ATP (pH 7.5), which was used to initiate the reaction. […]
After incubation, the enzyme reaction (18 μL) was split into two equal parts. […] The crystallized spots were then analyzed using MALDI-TOF-MS (Bruker Ultraflex). […]

[4] = system: MroB; experiment: Competition fluorescence polarization with fluorescein-Δ12MroA1, MroB; format: binding, Micromonospora rosaria; details: competition FP, 80 nM enzyme, 5 nM labeled Δ12MroA1
Procedure: (§4) The initial sample contained 80 nM enzyme, 5 nM labeled Δ12MroA1 peptide, and competitor peptide (concentration is from 20 μM to 100 μM, depending on the experiment). In a black 384-well plate (Corning 3575), 30 μL of initial sample was added to the first well, followed by 13 2-fold dilutions into subsequent wells containing 80 nM MBP-MroB and 5 nM labeled Δ12MroA1. The plate was covered from light and incubated at room temperature for 10 min, and then fluorescence polarization was measured (Biotek Synergy H4 hybrid reader) using the following filter (Ex: Em—485 nm/20 nm: 518 nm/20 nm). The obtained data was converted to anisotropy value and plotted against peptide concentration, and fitted to dose-response function:
(§5) Where: y=anisotropy value, A1=minimum anisotropy, A2=maximum anisotropy, p=Hill's coefficient, x=competitor concentration. The obtained IC50 was used to calculate inhibitor constant Krusing the following equation: 12
(§6) In cases where competitor concentration was not high enough to achieve a plateau, the competition curve was fitted with minimum anisotropy fixed to be the same value as the anisotropy value of the free probe solution. This calculation assumed that the labeled peptide was completely displaced from the enzyme binding pocket at a very high concentration of the competitor. […] The specific minimum anisotropy used in this experiment for both MroB and MroD was 65.

[5] = system: MroD; experiment: Competition fluorescence polarization with fluorescein-Δ12MroA1, MroD; format: binding, Micromonospora rosaria; details: competition FP, 80 nM enzyme, 5 nM labeled Δ12MroA1
Procedure: as §4, §5, §6

[6] = system: MroB/C; experiment: MroB/C dehydration (Dha formation) of MroA precursor peptide variants, MALDI-TOF-MS / LC-MS/MS; format: biochemical, Micromonospora rosaria; details: MroA2 multi-site variants, in vitro translated, MALDI-TOF-MS
Procedure: as §3
For a full MroBCD substrate scope investigation, a total translation volume for each variant of 7.5 μL was performed. 1.5 μL of 90 mM iodoacetamide (IAA) was added to quench dithiothreitol (DTT) in the translation reaction mixture, a thiol-based nucleophile that can react with electrophilic dehydroalanines generated from MroBC-catalyzed dehydration assays. The translation product was split into two parts with these corresponding volumes: 3 μL and 6 μL. In the 6 μL part. 10.2 μL of the enzyme mix containing enzymes and cofactors was added along with 1.8 μL 90 mM ATP (pH 7.5), which was used to initiate the reaction. The enzyme mix was made by adding these components in the following order: HEPES pH 7.5, MgCl2, glutamate, T. bispora tRNA^Glu (CUC), thermostable inorganic pyrophosphatase (TIPP), TEV (L56V/S135G/S219V) (w/w ratio with a total amount of MBP-tagged protein=1:10), MBP-MroB, MBP-MroC, and T. bispora GluRS. The enzyme mix was incubated 25 min at room temperature before adding to the translation product to facilitate in situ TEV-catalyzed cleavage of MBP from MBP-MroB and MBP-MroC. The enzymatic reaction proceeded for 1 h at room temperature. Overall, the concentration of components in the 18 μL reaction mix is as follows: 50 mM HEPES pH 7.5, 5 mM MgCl2. L-glutamate 1 mM, 3 μM T. bispora tRNA^Glu, 1 μM T. bispora GluRS, 2 μM MBP-MroB, 2 μM MBP-MroC, […], 0.027 U/μL TIPP, and 5 mM IAA. In addition, the 3 μL part was incubated with the same buffer lacking enzymes and tRNA as a translation control.
The reactions were performed similarly as described above, with 10 μM substrate concentration and without IAA. The total volume of each reaction is 100 μL.
Enzymatic assays were desalted using solid-phase extraction prior to LC-ESI-MS/MS analysis. Specifically, except for the thiazol(in)es-containing pyritide (which utilize 8 mg Pierce C18 Spin Column), the samples were applied to Toptip C18 (10-200 μL, Glygen Corp) wetted with 50 μL of 80% acetonitrile (0.1% formic acid) and equilibrate with 150 μL of 0.1% formic acid following the manufacturer instructions. The C18 columns (tips) are then washed with 150 μL of 0.1% formic acid and eluted using 100 μL 80% acetonitrile (0.1% formic acid). The samples were then dried utilizing lyophilization and redissolved in 25% acetonitrile (80 μL for enzymatic assays of in vitro-translated substrates and 200 μL for enzymatic assays of purified substrates). Then 20 μL of each sample was injected into an Agilent AdvanceBio Peptide Plus column (2.1×150 mm, 2.7 μm) equipped with an Agilent 6545B Q-TOF interfaced with an Agilent 1290 Infinity II LC system. Mobile phase solvents were composed of H2O, 0.1% formic acid (Solvent A), and acetonitrile 0.1% formic acid (Solvent B). The column compartment was maintained at 35° C. during all experiments. The column was equilibrated with 5 column volumes of starting mobile phase (95% A and 5% B) between injections. The gradient of all LC runs was as follows: 0-2 min: 95% A 5% B, 2-3 min: 70% A 30% B, 3-18 min: 20% A 80% B, 18-20 min: 5% A 95% B. The samples were run to waste for the first 3 min before applying to the mass spectrometer. Mass range was set from 100 to 1700 m/z (except for 412MroA1 W7G: 100-3000 m/z). MS parameters were as follows: gas, 320° C. at 8 L/min: nebulizer, 35 psig: nozzle voltage, 1000 V: sheath gas, 350° C. at 11 L/min: capillary, 3500 V: fragmentor, 125 V: skimmer, 65 V: MS scan rate (10) spectra/s): MS-MS scan rate (5 spectra/s); and isolation width (MS/MS), 1.3 m z. […]

[7] = system: MroD; experiment: MroD [4+2] macrocyclization of didehydrated MroA2 variants, MALDI-TOF-MS; format: biochemical, Micromonospora rosaria; set-up: key: +++ indicates enzyme activity roughly equal to wild-type MroA2; ++ indicates modestly reduced enzyme activity; + indicates severely reduced enzyme activity; − indicates no detectable enzyme activity (no macrocycles observed); details: MroA2 multi-site variants; qualitatively estimated from leader peptide vs remaining didehydrated intermediate
Procedure: (§7) After incubation, the enzyme reaction (18 μL) was split into two equal parts. One part was treated with MBP-MroD such that the final concentration of MBP-MroD is 3 μM, and the other part was added the same volume but with buffer lacking MBP-MroD (50 mM HEPES, 300 mM NaCl, 2.5% glycerol, 0.5 mM TCEP). The reaction further proceeded for 1.5 h at room temperature. All reaction mixture was then desalted with solid-phase extraction using Ziptip with 0.6 μL C18 resin (EMD Millipore) and crystallized on an MTP384 steel target plate using either saturated sinapic acid or 50 mg/mL Super DHB [dissolved in 60% acetonitrile and 0.1% trifluoroacetic acid (TFA)] as the matrix. The crystallized spots were then analyzed using MALDI-TOF-MS (Bruker Ultraflex). The external standard for MALDI-TOF-MS analysis is ProteoMass Peptide and Protein MALDI-MS Calibration Kit (Sigma).

[8] = system: MroD; experiment: as above; format: biochemical, Micromonospora rosaria; details: MroA2 multi-site variants; qualitatively estimated from leader peptide vs remaining didehydrated intermediate
Procedure: as §7

[9] = biological target: MBP-MroD (Micromonospora rosaria MroD with maltose-binding protein fused to the N-terminus) (Micromonospora rosaria) [MBP: P0AEX9]; experiment: fluorescence polarization, MBP-MroD titrated against labeled peptide
[10] = biological target: MBP-MroB (Micromonospora rosaria MroB with maltose-binding protein fused to the N-terminus) (Micromonospora rosaria) [MBP: P0AEX9]; experiment: fluorescence polarization, MBP-MroB titrated against labeled peptide

CC[C@H](C)[C@H](NC(=O)[C@@H](NC(=O)[C@H](Cc1c[nH]c2ccccc12)NC(=O)[C@H](CO)NC(=O)CNC(=O)[C@H](CC(C)C)NC(=O)[C@H](Cc1c[nH]c2ccccc12)NC(=O)CNC(=O)[C@H](CO)NC(=O)[C@H](C)NC(=O)CNC(=O)[C@@H](NC(=O)[C@H](CCC(=O)O)NC(=O)[C@@H](NC(=O)[C@H](CC(N)=O)NC(=O)CNC(=O)[C@H](CC(C)C)NC(=O)CNC(=O)CNC(=O)[C@@H](NC(=O)[C@H](CO)NC(=O)[C@H](CC(C)C)NC(=O)[C@H](C)NC(=O)[C@H](C)NC(=O)[C@H](CC(C)C)NC(=O)[C@H](CCC(=O)O)NC(=O)[C@H](CCC(=O)O)NC(=O)[C@H](CC(=O)O)NC(=O)[C@@H](NC(=O)[C@H](C)NC(=O)[C@H](CC(C)C)NC(=O)[C@H](CC(=O)O)NC(=O)[C@H](CC(C)C)NC(=O)[C@H](CC(=O)O)NC(=O)[C@@H](NC(=O)[C@@H](NC(=O)[C@H](CC(=O)O)NC(=O)[C@H](CC(C)C)NC(=O)[C@H](CC(=O)O)NC(=O)[C@H](CO)NC(=O)c1ccc2c(c1)C(=O)OC21c2ccc(O)cc2Oc2cc(O)ccc21)[C@@H](C)CC)C(C)C)C(C)C)C(C)C)[C@@H](C)O)C(C)C)C(C)C)C(=O)O [fluorescein-Δ12MroA1] (5FAM-SDLDIVDLDLAVDEELAALSVGGLGNTEVGASGWLGSWVI-OH)
Kd [1]: ~0.012 µM | Kd [2]: ~0.06 µM

H-SDLDIVDLDLAVDEELAALSVGGLGNTEVGASGWLGSWVI-OH [Δ12MroA1]
overall pyritide biosynthesis (dehydration and macrocyclization) by MroBCD [3]: full dehydration and macrocyclization | IC50 [4]: 0.68 ± 0.04 µM | IC50 [5]: 0.9 ± 0.02 µM

SGFFGRSWLI [MroA2, wild-type precursor peptide of M. rosaria]
overall pyritide biosynthesis (dehydration and macrocyclization) by MroBCD [3]: yielding the expected pyritides | Dha formation [6]: 2 Dha | Relative MroD conversion [7]: +++

SGIAKAGQSWLI [Number 28]
Relative MroD conversion [8]: 1 | Dha formation [6]: 2 Dha

fluorescein-Δ12MroA1 (Δ12MroA1 N-terminally labeled with fluorescein) (peptide)
Kd [9]: 0.012 µM | Kd [10]: 0.06 µM
